Data reported in ChEMBL document CHEMBL1149146, “Synthesis and biological evaluation of new 1,2-dihydro-4-hydroxy-2-oxo-3-quinolinecarboxamides for treatment of autoimmune disorders: structure-activity relationship” (2004).

Key:
Type in all cases: functional
Mus musculus [1] = assay: Inhibition of acute experimental autoimmune encephalomyelitis in SJL/N mice by 5 mg/kg/day p.o./s.c.; conditions: route oral
Mus musculus [2] = assay: Inhibition of acute experimental autoimmune encephalomyelitis in SJL/N mice by 0.2 mg/kg/day p.o./s.c.; conditions: po
Mus musculus [3] = assay: Inhibition of acute experimental autoimmune encephalomyelitis in SJL/N mice by 1 mg/kg/day p.o./s.c.; conditions: route oral
Mus musculus [4] = assay: Inhibition of acute experimental autoimmune encephalomyelitis (aEAE) induced in SJL/N mice at a dose of 0.2 mg/kg/day, (po) was determined; Inactive
Mus musculus [5] = assay: Inhibition of acute experimental autoimmune encephalomyelitis (aEAE) induced in SJL/N mice at a dose of 1 mg/kg/day, (po)
Mus musculus [6] = assay: Inhibition of acute experimental autoimmune encephalomyelitis in SJL/N mice by 5 mg/kg/day p.o.; conditions: route oral
Mus musculus [7] = assay: Inhibition of acute experimental autoimmune encephalomyelitis in SJL/N mice by 0.2 mg/kg/day p.o.; conditions: route oral
Mus musculus [8] = assay: Inhibition of acute experimental autoimmune encephalomyelitis (aEAE) induced in SJL/N mice at a dose of 5 mg/kg/day, (sc) was determined; Inactive

Structure (SMILES)	inhibition in vivo at 5 mg/kg/day (Mus musculus [1])	inhibition in vivo at 0.2 mg/kg/day (Mus musculus [2])	inhibition in vivo at 1 mg/kg/day (Mus musculus [3])	inhibition in vivo at 1 mg/kg/day (Mus musculus [5])	inhibition in vivo at 5 mg/kg/day (Mus musculus [6])	inhibition in vivo at 0.2 mg/kg/day (Mus musculus [7])	also measured
Cc1ccc2c(c1)c(O)c(C(=O)N(C)c1ccccc1)c(=O)n2C	100%	62%	79%	–	–	–	–
CC(C)N(C(=O)c1c(O)c2c(Cl)cccc2n(C)c1=O)c1ccccc1	–	–	–	54%	70%	–	inhibition in vivo at 0.2 mg/kg/day (Mus musculus [4]): < 35%
COc1cccc2c1c(O)c(C(=O)N(C)c1cc(F)ccc1F)c(=O)n2C	–	–	–	90%	95%	62%	–
COc1cccc2c1c(O)c(C(=O)N(C)c1ccc(C(C)(C)C)cc1)c(=O)n2C	–	–	–	84%	98%	60%	–
CN(C(=O)c1c(O)c2cccc(C(F)(F)F)c2n(C)c1=O)c1ccc(Cl)cc1Cl	–	–	–	–	–	–	inhibition in vivo at 5 mg/kg/day (Mus musculus [8]): < 35%
CCN(C(=O)c1c(O)c2c3c(ccc2n(C)c1=O)OCO3)c1ccccc1	–	–	–	75%	99%	58%	–
CN(C(=O)c1c(O)c2c([N+](=O)[O-])cccc2n(C)c1=O)c1ccccc1	–	–	–	96%	100%	46%	–
CN(C(=O)c1c(O)c2cc(F)ccc2n(C)c1=O)c1ccc(F)cc1	93%	–	77%	–	–	–	–
COc1cccc2c1c(O)c(C(=O)N(C)c1ccc(F)cc1F)c(=O)n2C	–	–	–	88%	–	76%	–
CCN(C(=O)c1c(O)c2c(C(F)(F)F)cccc2n(C)c1=O)c1ccccc1	–	–	–	80%	–	49%	–
CN(C(=O)c1c(O)c2ccccc2n(-c2ccccc2)c1=O)c1ccccc1	–	–	–	–	–	–	inhibition in vivo at 5 mg/kg/day (Mus musculus [8]): < 35%
COc1cccc2c1c(O)c(C(=O)N(C)c1c(F)cccc1F)c(=O)n2C	–	–	–	43%	–	28%	–
CSc1cccc2c1c(O)c(C(=O)N(C)c1ccccc1)c(=O)n2C	–	–	–	100%	100%	94%	–
COc1cccc(N(C)C(=O)c2c(O)c3c(OC)cccc3n(C)c2=O)c1	85%	35%	90%	–	–	–	–
CCN(C(=O)c1c(O)c2c(Br)cccc2n(C)c1=O)c1ccccc1	–	–	–	95%	–	57%	–
CCN(C(=O)c1c(O)c2c(Cl)cccc2n(C)c1=O)c1ccccc1 [LAQUINIMOD]	96%	66%	92%	–	–	–	–
COc1cccc2c1c(O)c(C(=O)N(C)c1cccc(Oc3ccccc3)c1)c(=O)n2C	90%	47%	63%	–	–	–	–
CCc1cccc2c1c(O)c(C(=O)N(CC)c1ccccc1)c(=O)n2C [PAQUINIMOD]	–	–	–	100%	–	81%	–
COc1ccc2c(c1)c(O)c(C(=O)N(C)c1ccccc1)c(=O)n2C	100%	83%	100%	–	–	–	–
COc1cccc2c1c(O)c(C(=O)N(C)c1cccc(C(C)(C)C)c1)c(=O)n2C	–	–	–	60%	84%	38%	–
COc1ccc2nc(O)c(C(=O)N(C)c3ccc(F)cc3)c(O)c2c1	–	–	–	–	–	–	inhibition in vivo at 5 mg/kg/day (Mus musculus [8]): < 35%
CN(C(=O)c1c(O)c2cc(C(F)(F)F)ccc2n(C)c1=O)c1ccccc1	100%	67%	100%	–	–	–	–
CCN(C(=O)c1c(O)c2c(SC)cccc2n(C)c1=O)c1ccccc1	–	–	–	73%	99%	51%	–

Structure (SMILES)	inhibition in vivo at 5 mg/kg/day (Mus musculus [1])	inhibition in vivo at 0.2 mg/kg/day (Mus musculus [2])	inhibition in vivo at 1 mg/kg/day (Mus musculus [3])	inhibition in vivo at 1 mg/kg/day (Mus musculus [5])	inhibition in vivo at 5 mg/kg/day (Mus musculus [6])	inhibition in vivo at 0.2 mg/kg/day (Mus musculus [7])	also measured
COc1cccc2c1c(O)c(C(=O)N(C)c1ccc(F)cc1)c(=O)n2C	93%	92%	–	–	–	–	–
CCCN(C(=O)c1c(O)c2c(Cl)cccc2n(C)c1=O)c1ccccc1	–	–	–	94%	100%	49%	–
C=CCN(C(=O)c1c(O)c2c(Cl)cccc2n(C)c1=O)c1ccccc1	–	–	–	59%	81%	–	–
COc1ccc2c(O)c(C(=O)N(C)c3ccccc3)c(=O)n(C)c2c1	–	–	–	–	–	–	inhibition in vivo at 5 mg/kg/day (Mus musculus [8]): < 35%
CN(C(=O)c1c(O)c2ccc(Oc3ccccc3)cc2n(C)c1=O)c1ccc(F)cc1	–	–	–	–	–	–	inhibition in vivo at 5 mg/kg/day (Mus musculus [8]): < 35%
CCN(C(=O)c1c(O)c2cc(OC)ccc2n(C)c1=O)c1ccccc1	84%	39%	37%	–	–	–	–
CCN(C(=O)c1c(O)c2cc(C(F)(F)F)ccc2n(C)c1=O)c1ccccc1	–	–	–	57%	–	–	inhibition in vivo at 0.2 mg/kg/day (Mus musculus [4]): < 35%
CN(C)c1cccc2c1c(O)c(C(=O)N(C)c1ccccc1)c(=O)n2C	–	–	–	93%	100%	58%	–
Cc1cccc2c1c(O)c(C(=O)N(C)c1ccccc1)c(=O)n2C	97%	95%	100%	–	–	–	–
CN(C(=O)c1c(O)c2c(C(F)(F)F)cccc2n(C)c1=O)c1ccccc1	–	–	–	99%	100%	–	–
COc1cccc2c(O)c(C(=O)N(C)c3ccccc3)c(=O)n(C)c12	–	–	–	–	–	–	inhibition in vivo at 5 mg/kg/day (Mus musculus [8]): < 35%
COc1ccc(N(C)C(=O)c2c(O)c3c(OC)cccc3n(C)c2=O)cc1	–	–	–	84%	–	78%	–
CN(C(=O)c1c(O)c2c(Cl)cccc2n(C)c1=O)c1ccccc1	100%	91%	99%	–	–	–	–
COc1cccc2c1c(O)c(C(=O)N(C)c1ccc(Cl)cc1)c(=O)n2C	89%	77%	70%	–	–	–	–
COc1cccc2c1c(O)c(C(=O)N(C)c1cccc(Cl)c1)c(=O)n2C	–	–	–	85%	71%	54%	–
CCOc1cccc2c1c(O)c(C(=O)N(C)c1ccccc1)c(=O)n2C	–	–	–	40%	76%	44%	–
COc1cccc2c1c(O)c(C(=O)N(C)c1ccccc1F)c(=O)n2C	–	–	–	82%	100%	94%	–
CN(C(=O)c1c(O)c2cc(Cl)ccc2n(C)c1=O)c1ccccc1	100%	81%	100%	–	–	–	–
CCN(C(=O)c1c(O)c2c(F)cccc2n(C)c1=O)c1ccccc1	–	–	–	60%	–	–	–
CCN(C(=O)c1c(O)c2c(OC)cccc2n(C)c1=O)c1ccccc1	86%	69%	73%	–	–	–	–
CN(C(=O)c1c(O)c2cc(OC(F)(F)F)ccc2n(C)c1=O)c1ccccc1	96%	63%	72%	–	–	–	–
CN(C(=O)c1c(O)c2ccc(Cl)cc2n(C)c1=O)c1ccccc1	–	–	–	–	–	–	inhibition in vivo at 5 mg/kg/day (Mus musculus [8]): < 35%
COc1cccc2c1c(O)c(C(=O)N(C)c1ccccc1)c(=O)n2C	96%	79%	95%	–	–	–	–
